Assay results published in patent EP2832348B1, “METHOD FOR DISSOLVING FLAVONOID COMPOUND, CARBON GLYCOSIDE COMPOUND, OR STILBENE COMPOUND AND METHOD FOR PREPARING AN INJECTION OR A POWDER FOR INJECTION” (Kunming Pharmaceutical Corp., priority 2012, dated 2013).
Converted amounts (≈) assume the structure as drawn.

Tests used:
[1] = Dissolving the compound with solubilizer in heated, vacuum-stirred water for injection under nitrogen or argon gas (preparation tank); assay type: physicochemical; details: kept at 80 °C, nitrogen gas
Experimental: In view of this, the present invention provides a method for dissolving a carbon glycoside compound or a stilbene compound, characterized in that the method comprises the following steps: • heating water for injection to 80-98 °C, followed by stirring under vacuum condition at 30-80 °C, and then adding the carbon glycoside compound or the stilbene compound along with a solubilizer under the protection of nitrogen gas or argon gas to obtain a solution of said compounds; • wherein the solubilizer is one or a mixture of two or more of gastrodin, water-soluble cyclodextrin and ethanol, and wherein the water-soluble cyclodextrin is one or a mixture of two or more of methyl-β-cyclodextrin, thioether-β-cyclodextrin and sulfobutyl ether-β-cyclodextrin; and • wherein the mass ratio of the carbon glycoside compound or the stilbene compound to the solubilizer is 1:1-20.
Disclosed is a method for dissolving a flavonoid compound, a carbon glycoside compound or a stilbene compound, including: • mixing the flavonoid compound, the carbon glycoside compound or the stilbene compound with a solubilizer to obtain a reactant; and • heating water for injection to 80-98 °C, followed by stirring under vacuum conditions at 30-80 °C, and then adding the reactant under the protection of nitrogen gas or argon gas to obtain a solution of the reactant.
Considering the sensitivity to heat or light of the flavonoid compound, the carbon glycoside compound or the stilbene compound, a method is provided by heating water for injection to 80-98 °C to remove dissolved oxygen and other gases in water, which reduces the surface tension of water, increases the contact area of water with the flavonoid compound, the carbon glycoside compound or the stilbene compound, thus increasing the dissolution speed. Meanwhile, pre-heating the water for injection can effectively avoid degradation of the flavonoid compound, the carbon glycoside compound or the stilbene compound due to exposure to the dissolved oxygen, to eliminate unstable factors of the flavonoid compound, the carbon glycoside compound or the stilbene compound. The vacuum conditions can achieve further deoxygenation, facilitating the dissolution of the flavonoid compound, the carbon glycoside compound or the stilbene compound in water. Nitrogen gas or argon gas provides an inert atmosphere, which further reduces the surface tension of the materials, increases the contact area of the flavonoid compound, the carbon glycoside compound or the stilbene compound with water, and increases the dissolution speed.

[2] = Solubility of triptophenolide in aqueous solutions with different concentrations of gastrodin and/or water-soluble cyclodextrin; assay type: physicochemical; details: aqueous solution of solubilizer
From the text: Table 1. Solubility of triptophenolide in aqueous solutions with different concentrations of gastrodin and/or water-soluble cyclodextrin

SMILES: OC[C@H]1O[C@@H](Oc2cc(/C=C/c3cc(O)cc(O)c3)ccc2O)[C@H](O)[C@@H](O)[C@@H]1O
- dissolved in (time) ([1]; Example 35: 5 g with Gastrodin 80 g in 1000 ml, water heated to 95 °C, vacuum stirring 10 minutes): about 5 minutes
- dissolved in (time) ([1]; Example 36: 20 g with Gastrodin 200 g in 1000 ml, water heated to 95 °C, vacuum stirring 10 minutes): about 5 minutes
- dissolved in (time) ([1]; Example 37: 10 g with Gastrodin 80 g in 1000 ml, water heated to 95 °C, vacuum stirring 10 minutes): about 5 minutes
- dissolved in (time) ([1]; Example 38: 25 g with Gastrodin 80 g, Hydroxypropyl-β-cyclodextrin 30 g in 1000 ml, water heated to 95 °C, vacuum stirring 10 minutes): about 5 minutes
- dissolved in (time) ([1]; Example 47: 5 g with Methyl-β-cyclodextrin 30 g in 1000 ml, water heated to 88 °C, vacuum stirring 40 minutes): about 5 minutes
- dissolved in (time) ([1]; Example 51: 10 g with Methyl-β-cyclodextrin 30 g in 1000 ml, water heated to 95 °C, vacuum stirring 10 minutes): about 5 minutes
- dissolved in (time) ([1]; Example 52: 10 g with Thioether-β-cyclodextrin 30 g in 1000 ml, water heated to 95 °C, vacuum stirring 10 minutes): about 5 minutes
- dissolved in (time) ([1]; Example 55: 10 g with Methyl-β-cyclodextrin 50 g in 1000 ml, water heated to 95 °C, vacuum stirring 10 minutes): about 5 minutes
- dissolved in (time) ([1]; Example 58: 20 g with Hydroxypropyl-β-cyclodextrin 50 g in 1000 ml, water heated to 95 °C, vacuum stirring 10 minutes): about 5 minutes
- dissolved in (time) ([1]; Example 59: 20 g with Methyl-β-cyclodextrin 50 g in 1000 ml, water heated to 95 °C, vacuum stirring 10 minutes): about 5 minutes
- dissolved in (time) ([1]; Example 61: 20 g with Sulfobutyl ether-β-cyclodextrin 50 g in 1000 ml, water heated to 95 °C, vacuum stirring 10 minutes): about 5 minutes
- dissolved in (time) ([1]; Example 63: 5 g with Gastrodin 100 g in 1000 ml, water heated to 95 °C, vacuum stirring 10 minutes): about 5 minutes
- dissolved in (time) ([1]; Example 65: 5 g with Gastrodin 100 g in 1000 ml, water heated to 95 °C, vacuum stirring 10 minutes): about 5 minutes
- dissolved in (time) ([1]; Example 68: 50 g with Hydroxypropyl-β-cyclodextrin 80 g in 1000 ml, water heated to 95 °C, vacuum stirring 10 minutes): about 5 minutes
- dissolved in (time) ([1]; Example 69: 50 g with Methyl-β-cyclodextrin 80 g in 1000 ml, water heated to 95 °C, vacuum stirring 10 minutes): about 5 minutes
- dissolved in (time) ([1]; Example 70: 50 g with Thioether-β-cyclodextrin 80 g in 1000 ml, water heated to 95 °C, vacuum stirring 10 minutes): about 5 minutes
- dissolved in (time) ([1]; Example 71: 50 g with Sulfobutyl ether-β-cyclodextrin 80 g (formula; text: hydroxypropyl-β-cyclodextrin) in 1000 ml, water heated to 95 °C, vacuum stirring 10 minutes): about 5 minutes
- dissolved in (time) ([1]; Example 72: 50 g with Hydroxypropyl-β-cyclodextrin 80 g in 1000 ml, water heated to 95 °C, vacuum stirring 10 minutes): about 5 minutes
- dissolved in (time) ([1]; Example 73: 50 g with Hydroxypropyl-β-cyclodextrin 80 g in 1000 ml, water heated to 95 °C, vacuum stirring 10 minutes): about 5 minutes
- dissolved in (time) ([1]; Example 74: 5 g with Gastrodin 0.5 g in 1000 ml, water heated to 95 °C, vacuum stirring 10 minutes): about 5 minutes
- dissolved in (time) ([1]; Example 80: 10 g with Hydroxypropyl-β-cyclodextrin 30 g in 1000 ml, water heated to 95 °C, vacuum stirring 10 minutes): about 5 minutes
- solubility ([2]; aqueous with cosolvent or surfactant or cyclodextrin, Gastrodin concentration 1 %): 3.19 mg/mL (≈ 7.85 mM)
- solubility ([2]; aqueous with cosolvent or surfactant or cyclodextrin, Gastrodin concentration 3 %): 5.1 mg/mL (≈ 12.5 mM)
- solubility ([2]; aqueous with cosolvent or surfactant or cyclodextrin, Gastrodin concentration 5 %): 7.11 mg/mL (≈ 17.5 mM)
- solubility ([2]; aqueous with cosolvent or surfactant or cyclodextrin, Gastrodin concentration 8 %): 9.17 mg/mL (≈ 22.6 mM)
- solubility ([2]; aqueous with cosolvent or surfactant or cyclodextrin, Gastrodin concentration 10 %): 11.4 mg/mL (≈ 28.1 mM)
- solubility ([2]; aqueous with cosolvent or surfactant or cyclodextrin, Gastrodin concentration 15 %): 11.8 mg/mL (≈ 28.9 mM)
- solubility ([2]; aqueous with cosolvent or surfactant or cyclodextrin, Gastrodin concentration 25 %): 38.4 mg/mL (≈ 94.4 mM)
- solubility ([2]; aqueous with cosolvent or surfactant or cyclodextrin, Gastrodin concentration 30 %): 60.4 mg/mL (≈ 149 mM)
- solubility ([2]; aqueous with cosolvent or surfactant or cyclodextrin, Gastrodin concentration 35 %): 87.8 mg/mL (≈ 216 mM)
- solubility ([2]; aqueous with cosolvent or surfactant or cyclodextrin, Gastrodin concentration 40 %): 85.1 mg/mL (≈ 209 mM)
- solubility ([2]; aqueous with cosolvent or surfactant or cyclodextrin, Gastrodin concentration 45 %): 98 mg/mL (≈ 241 mM)
- solubility ([2]; aqueous with cosolvent or surfactant or cyclodextrin, Gastrodin concentration 50 %): 105 mg/mL (≈ 258 mM)
- solubility ([2]; aqueous with cosolvent or surfactant or cyclodextrin, Hydroxypropyl-β-cyclodextrin concentration 1 %): 4.8 mg/mL (≈ 11.8 mM)
- solubility ([2]; aqueous with cosolvent or surfactant or cyclodextrin, Hydroxypropyl-β-cyclodextrin concentration 3 %): 10.8 mg/mL (≈ 26.5 mM)
- solubility ([2]; aqueous with cosolvent or surfactant or cyclodextrin, Hydroxypropyl-β-cyclodextrin concentration 5 %): 20 mg/mL (≈ 49.3 mM)
- solubility ([2]; aqueous with cosolvent or surfactant or cyclodextrin, Hydroxypropyl-β-cyclodextrin concentration 8 %): 26.1 mg/mL (≈ 64.3 mM)
- solubility ([2]; aqueous with cosolvent or surfactant or cyclodextrin, Hydroxypropyl-β-cyclodextrin concentration 10 %): 34.1 mg/mL (≈ 83.9 mM)
- solubility ([2]; aqueous with cosolvent or surfactant or cyclodextrin, Hydroxypropyl-β-cyclodextrin concentration 15 %): 43.3 mg/mL (≈ 106 mM)
- solubility ([2]; aqueous with cosolvent or surfactant or cyclodextrin, Hydroxypropyl-β-cyclodextrin concentration 20 %): 59.2 mg/mL (≈ 146 mM)
- solubility ([2]; aqueous with cosolvent or surfactant or cyclodextrin, Hydroxypropyl-β-cyclodextrin concentration 25 %): 64.3 mg/mL (≈ 158 mM)
- solubility ([2]; aqueous with cosolvent or surfactant or cyclodextrin, Hydroxypropyl-β-cyclodextrin concentration 30 %): 116 mg/mL (≈ 286 mM)
- solubility ([2]; aqueous with cosolvent or surfactant or cyclodextrin, Hydroxypropyl-β-cyclodextrin concentration 35 %): 159 mg/mL (≈ 392 mM)
- solubility ([2]; aqueous with cosolvent or surfactant or cyclodextrin, Hydroxypropyl-β-cyclodextrin concentration 40 %): 189 mg/mL (≈ 464 mM)
- solubility ([2]; aqueous with cosolvent or surfactant or cyclodextrin, Hydroxypropyl-β-cyclodextrin concentration 45 %): 181 mg/mL (≈ 444 mM)
- solubility ([2]; aqueous with cosolvent or surfactant or cyclodextrin, Hydroxypropyl-β-cyclodextrin concentration 50 %): 183 mg/mL (≈ 451 mM)
- solubility ([2]; aqueous with cosolvent or surfactant or cyclodextrin, Solubilizer concentration: Gastrodin 0 %, Hydroxypropyl-β-cyclodextrin 3 %): 10.8 mg/mL (≈ 26.5 mM)
- solubility ([2]; aqueous with cosolvent or surfactant or cyclodextrin, Solubilizer concentration: Gastrodin 1 %, Hydroxypropyl-β-cyclodextrin 3 %): 14.8 mg/mL (≈ 36.4 mM)
- solubility ([2]; aqueous with cosolvent or surfactant or cyclodextrin, Solubilizer concentration: Gastrodin 3 %, Hydroxypropyl-β-cyclodextrin 3 %): 16.2 mg/mL (≈ 39.9 mM)
- solubility ([2]; aqueous with cosolvent or surfactant or cyclodextrin, Solubilizer concentration: Gastrodin 5 %, Hydroxypropyl-β-cyclodextrin 3 %): 22.6 mg/mL (≈ 55.6 mM)
- solubility ([2]; aqueous with cosolvent or surfactant or cyclodextrin, Solubilizer concentration: Gastrodin 8 %, Hydroxypropyl-β-cyclodextrin 3 %): 30.9 mg/mL (≈ 76.1 mM)
- solubility ([2]; aqueous with cosolvent or surfactant or cyclodextrin, Solubilizer concentration: Gastrodin 10 %, Hydroxypropyl-β-cyclodextrin 3 %): 39.8 mg/mL (≈ 98 mM)
- solubility ([2]; aqueous with cosolvent or surfactant or cyclodextrin, Solubilizer concentration: Gastrodin 15 %, Hydroxypropyl-β-cyclodextrin 3 %): 56 mg/mL (≈ 138 mM)
- solubility ([2]; aqueous with cosolvent or surfactant or cyclodextrin, Solubilizer concentration: Gastrodin 20 %, Hydroxypropyl-β-cyclodextrin 3 %): 107 mg/mL (≈ 264 mM)
- solubility ([2]; aqueous with cosolvent or surfactant or cyclodextrin, Solubilizer concentration: Gastrodin 25 %, Hydroxypropyl-β-cyclodextrin 3 %): 127 mg/mL (≈ 312 mM)
- solubility ([2]; aqueous with cosolvent or surfactant or cyclodextrin, Solubilizer concentration: Gastrodin 30 %, Hydroxypropyl-β-cyclodextrin 3 %): 181 mg/mL (≈ 446 mM)
- solubility ([2]; aqueous with cosolvent or surfactant or cyclodextrin, Solubilizer concentration: Gastrodin 35 %, Hydroxypropyl-β-cyclodextrin 3 %): 233 mg/mL (≈ 574 mM)
- solubility ([2]; aqueous with cosolvent or surfactant or cyclodextrin, Solubilizer concentration: Gastrodin 40 %, Hydroxypropyl-β-cyclodextrin 3 %): 197 mg/mL (≈ 485 mM)
- solubility ([2]; aqueous with cosolvent or surfactant or cyclodextrin, Solubilizer concentration: Gastrodin 45 %, Hydroxypropyl-β-cyclodextrin 3 %): 187 mg/mL (≈ 460 mM)
- solubility ([2]; aqueous with cosolvent or surfactant or cyclodextrin, Solubilizer concentration: Gastrodin 50 %, Hydroxypropyl-β-cyclodextrin 3 %): 188 mg/mL (≈ 463 mM)
- solubility ([2]; water, Gastrodin concentration 0 %): 1.75 mg/mL (≈ 4.31 mM)
- solubility ([2]; water, Hydroxypropyl-β-cyclodextrin concentration 0 %): 1.75 mg/mL (≈ 4.31 mM)
